The structures appear in SMILES notation.

T1 sequence (P37288 whole entry): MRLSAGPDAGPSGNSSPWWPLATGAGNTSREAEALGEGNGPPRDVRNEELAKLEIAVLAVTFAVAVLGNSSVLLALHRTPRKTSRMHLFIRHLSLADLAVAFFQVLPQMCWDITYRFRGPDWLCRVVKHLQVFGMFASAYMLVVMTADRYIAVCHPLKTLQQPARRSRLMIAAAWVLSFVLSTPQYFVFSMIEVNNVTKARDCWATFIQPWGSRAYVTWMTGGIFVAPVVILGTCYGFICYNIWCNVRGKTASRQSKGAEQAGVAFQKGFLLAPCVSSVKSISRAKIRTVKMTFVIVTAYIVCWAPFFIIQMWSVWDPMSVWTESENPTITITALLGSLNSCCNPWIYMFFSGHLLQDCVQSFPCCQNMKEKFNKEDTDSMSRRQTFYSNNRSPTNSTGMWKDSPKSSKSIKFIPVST

This assay addresses T1, human V1a receptor (Homo sapiens, UniProt P37288).
T1 construct: expressed in transfected cells; host or cells: HEK293 cells, transiently transfected; cell membranes
Kind of assay: human V1a receptor binding (3H-Vasopressin SPA, HEK293 cell membranes). Particulars: membranes from HEK293 cells transiently transfected with human V1a receptor, Ki by Cheng-Prussoff, read-out: pki (hV1a) (converted). The procedure:
The human V1a receptor was cloned by RT-PCR from total human liver RNA. The coding sequence was subcloned in an expression vector after sequencing to confirm the identity of the amplified sequence. […] Cell membranes were prepared from HEK293 cells transiently transfected with the expression vector and grown in 20 liter fermenters with the following protocol.
50 g of cells were resuspended in 30 ml freshly prepared ice cold Lysis buffer (50 mM HEPES, 1 mM EDTA, 10 mM MgCl2 adjusted to pH=7.4+complete cocktail of protease inhibitor (Roche Diagnostics)), homogenized with Polytron for 1 min, and sonicated on ice for 2×2 minutes at 80% intensity (Vibracell sonicator). The preparation was centrifuged 20 min at 500 g at 4° C., the pellet was discarded and the supernatant centrifuged 1 hour at 43,000 g at 4° C. (19,000 rpm). The pellet was resuspended in 12.5 ml Lysis buffer+12.5ml Sucrose 20% and homogenized using a Polytron for 1-2 min. The protein concentration was determined by the Bradford method and aliquots were stored at −80° C. until use. For binding studies 60 mg Yttrium silicate SPA beads (Amersham) were mixed with an aliquot of membrane in binding buffer (50 mM Tris, 120 mM NaCl, 5 mM KCl, 2 mM CaCl2, 10 mM MgCl2) for 15 minutes with mixing. 50 ul of bead/membrane mixture was then added to each well of a 96 well plate, followed by 50 ul of 4 nM 3H-Vasopressin (American Radiolabeled Chemicals). For total binding measurement 100 ul of binding buffer were added to the respective wells, for non-specific binding 100 ul of 8.4 mM cold vasopressin were added, and for compound testing 100 ul of a serial dilution of each compound in 2% DMSO were added. The plate was incubated 1 h at room temperature, centrifuged 1 min at 1000 g and counted on a Packard Top-Count. Non-specific binding counts were subtracted from each well and data was normalized to the maximum specific binding set at 100%. To calculate an IC 50 the curve was fitted using a non-linear regression model (XLfit) and the Ki was calculated using the Cheng-Prussoff equation.
Consider `N#CCc1cc(Cl)cc2cc(C(=O)N3CCC(c4cccc5[nH]c(=O)oc45)CC3)[nH]c12` [Example 1, {5-Chloro-2-[4-(2-oxo-2,3-dihydro-benzooxazol-7-yl)-piperidine-1-carbonyl]-1H-indol-7-yl}-acetonitrile], for which the Ki is 12.9 nM. Regarding `O=C(c1cc2cc(Cl)cc(CN3CCOCC3)c2[nH]1)N1CCC(c2cccc3[nH]c(=O)oc23)CC1` [Example 2, 7-[1-(5-Chloro-7-morpholin-4-ylmethyl-1H-indole-2-carbonyl)-piperidin-4-yl]-3H-benzooxazol-2-one], the Ki was 6.53 nM. Take `COc1cccc(OC)c1C1CCN(C(=O)c2cc3cc(Cl)ccc3[nH]2)CC1` [Example 5, (5-Chloro-1H-indol-2-yl)-[4-(2,6-dimethoxy-phenyl)-piperidin-1-yl]-methanone]: the Ki is 40.7 nM. For the compound `COc1cccc(OC)c1C1CCN(C(=O)c2cc3cc(Cl)ccc3n2CC(=O)N(C)C)CC1` [Example 6, 2-{5-Chloro-2-[4-(2,6-dimethoxy-phenyl)-piperidine-1-carbonyl]-indol-1-yl}-N,N-dimethyl-acetamide], the Ki was 50.1 nM.

As to `COc1cccc(OC)c1C1CCN(C(=O)c2cc3cc(Cl)ccc3n2CC#N)CC1` [Example 7, {5-Chloro-2-[4-(2,6-dimethoxy-phenyl)-piperidine-1-carbonyl]-indol-1-yl}-acetonitrile], the Ki was 14 nM. With `COc1cccc(OC)c1C1CCN(C(=O)c2cc3cccc(CC#N)c3[nH]2)CC1` [Example 8, {2-[4-(2,6-Dimethoxy-phenyl)-piperidine-1-carbonyl]-1H-indol-7-yl}-acetonitrile] the figure was 86.1 nM. With `COc1cccc(OC)c1C1CCN(C(=O)c2cc3cc(Cl)cc(CC#N)c3[nH]2)CC1` [Example 9, {5-Chloro-2-[4-(2,6-dimethoxy-phenyl)-piperidine-1-carbonyl]-1H-indol-7-yl}-acetonitrile] the figure was 19.5 nM. Turning to `COc1ccccc1C1CCN(C(=O)c2cc3cc(Cl)cc(CC#N)c3[nH]2)CC1` [Example 10, {5-Chloro-2-[4-(2-methoxy-phenyl)-piperidine-1-carbonyl]-1H-indol-7-yl}-acetonitrile], the Ki is 45.7 nM. Take `COc1ccccc1C1CCN(C(=O)c2cc3cc(Cl)cc(CN4CCOCC4)c3[nH]2)CC1` [Example 11, (5-Chloro-7-morpholin-4-ylmethyl-1H-indol-2-yl)-[4-(2-methoxy-phenyl)-piperidin-1-yl]-methanone]: the Ki is 54.3 nM. In the case of `Cc1c(C(=O)N2CC=C(c3ccccc3)CC2)[nH]c2c(C)cccc12` [Example 12, (3,7-Dimethyl-1H-indol-2-yl)-(4-phenyl-3,6-dihydro-2H-pyridin-1-yl)-methanone] it was 96.6 nM.

Source of the values: US20080139552A1, “INDOLES” (priority 2006, published 2008).
